Here are results for 29 compounds from patent US20150320776A1, “METHOD OF INHIBITING HELICOBACTER PYLORI” (priority 2014, published 2015).

The test system of one assay is Helicobacter pylori J99. Description: Paper disc diffusion test, inhibition zone on agar plate. It is filed as cell-based. The following applies: blank disc 8 mm; for zone of inhibition at 1 mg/disc / zone of inhibition at 4 mg/disc: Helicobacter pylori, J99, read-out: inhibition growth diameter; for inhibition zone diameter (FIG. 5): amount per disc not given. On the procedure:
Helicobacter pylori J99 (HP J99) used in the embodiments of the present invention was purchased from Bioresource Collection and Research Center (BCRC). The cultivating condition is indicated as follows: the bacteria were inoculated onto CDC medium (CDC anaerobe 5% blood agar, BD) and then incubated at 37° C. for 48 to 72 hours. After incubation, the bacteria were further incubated under micro-aerobic condition (5% O2, 10% CO2, 85% N2). For preparation of solutions with the foregoing compound A or compound B, ethanol was used as solvent to prepare various suitable concentrations.
The test on the inhibitory effect of Helicobacter pylori with the compound A or compound B of the present invention was carried out as follows: Helicobacter pylori was first grown on a CDC agar plate containing sheep blood for 48 to 72 hours. The bacterial colony was scraped with a cotton swab or an inoculation loop and subsequently transferred into a normal saline solution (0.9% NaCl). The optical density was then adjusted to 2 Mcfarland (1-4×10^8/ml bacteria) to obtain a solution with Helicobacter pylori. Subsequently, the foregoing compound A or compound B was weighed out to prepare a series of concentrations (from 10 mg/ml to 100 mg/ml) of test solutions (40 μl) and then 40 μl of the solution were transferred onto blank paper discs. After dryness, the discs were separately stuck to a proper site on the agar plate. After incubation under micro-aerobic condition at 37° C. for 48 hours, observation was made if any inhibition zone emerged on the agar plate.
The compounds of the present invention, which were actually tested, included phenoxyacetic acid, 3,4-dihydrobenzoic acid, 3,5-diamino-benzoic acid, 4-aminophenylacetic acid, 4-nitrobenzoic acid, 2,4-dinitrobenzoic acid, 4-(dimethylamino)benzoic acid, 2-methoxyphenylacetic acid, 3-amino-4-methylbenzoic acid, 4-methylthiobenzoic acid, 4-bromphenylacetic acid, 1,4-cyclohexanedicarboxylic acid, phthalic acid, trans-cinnamic acid, 4-ethylbenzoic acid, phenylacetic acid, benzoic acid, 3-phenylpropionic acid, 4-phenylbutyric acid, 3,4-dimethoxybenzyl alcohol (1) and 4-indophenylboronic acid (2). Ethanol (3) and water (4) were used as control.
(Agar diffusion results depend on both activity and mobility in agar.)

The next assay has as its system susceptible H. pylori. The settings on record: cited from earlier work; for increase of MIC90: ratio of pH 5.5 to 7.0.
Assay [1] deals with H. pylori J99. Description: Minimal bactericidal concentration (MBC). The assay is classed as cell-based. The following applies: Helicobacter pylori, kills 99.9% of bacteria of control group, 37° C., 1 to 2 hours. On the procedure:
Minimal bactericidal concentration (MBC) was determined by incubating test bacteria with different doses of test compounds for a period of time. Subsequently, the solutions underwent serial dilutions and the bacteria were grown on the agar plate by plate coating. At this moment, the concentration of test compound lost its inhibitory ability because of being diluted via serial dilutions and plate coating and it could be seen from the clear bacterial solution if the bacteria were dead. If bacteria growth was inhibited by the concentration of test compound, the bacteria might continue to grow after the abovementioned treatment and appeared in the form of colonies. In an embodiment of the present invention, H. pylori J99 were pre-cultivated for two days and colonies were scraped and suspended in saline solution. The bacterial concentration was then adjusted to 2 McFarland. After addition of suitable concentrations of benzoic acid and phenylacetic acid and incubation at 37° C. for 1 to 2 hours, the bacterial suspension underwent serial dilutions. 100 μl aliquots were taken from each suspension and applied on CDC plates. The plates were incubated under micro-aerobic condition at 37° C. for two days. The number of bacterial colonies was noted down and the concentration of test compound, that is able to kill 99.9% of bacteria of control group, was used as minimal bactericidal concentration.

Assay [2] has as its system H. pylori J99. Description: Minimum inhibition concentration with different pH values. The assay is classed as cell-based, Helicobacter pylori. The settings on record: for MIC90: Helicobacter pylori; for MIC: pH 6.0 to pH 7.0, no change observed.

In brackets after ≈: the same amount, converted by molar mass. Where two headings read alike, the source gives them in different places.

Regarding `CCc1ccc(C(=O)O)cc1` [4-ethylbenzoic acid], the zone of inhibition at 1 mg/disc in the assay on Helicobacter pylori J99 (1 mg/disc) is 30 mm.
Regarding `OB(O)c1ccc(I)cc1` [4-indophenylboronic acid], the inhibition growth diameter in the assay with Helicobacter pylori J99 (1 mg/disc) came to 35 mm. Also, in the assay on Helicobacter pylori J99, the “inhibition zone diameter (FIG. 5)” value was 35 mm.
As to `O=C(O)c1ccccc1C(=O)O` [phthalic acid], the zone of inhibition at 4 mg/disc with Helicobacter pylori J99 (4 mg/disc) was determined as 12 mm.
For `COc1ccc(CO)cc1OC` [3,4-dimethoxybenzyl alcohol], the zone of inhibition at 4 mg/disc in the assay with Helicobacter pylori J99 (4 mg/disc) came out at 20 mm. Further, the “inhibition zone diameter (FIG. 5)” value in the assay with Helicobacter pylori J99 is given as 20 mm.
Usually MIC90 stands for an inhibitory concentration at the 90% level, which refers to growth in some studies and to a panel of isolates in others. `Cc1ncc([N+](=O)[O-])n1CCO` [Metronidazole]: the MIC90 in the assay on susceptible H. pylori (pH 5.5), with susceptible H. pylori (pH 6.0) and with susceptible H. pylori (pH 7.5) was 2 µg/mL (≈ 11.7 µM) each time.
Regarding `CC1(C)S[C@@H]2[C@H](NC(=O)[C@H](N)c3ccc(O)cc3)C(=O)N2[C@H]1C(=O)O` [amoxicillin], in the assay with susceptible H. pylori, the “increase of MIC90” value is given as “eight”.
Turning to `O=C(O)COc1ccccc1` [Phenoxyacetic acid], the zone of inhibition at 4 mg/disc in the assay with Helicobacter pylori J99 (4 mg/disc) worked out at 17 mm.
`CC1=C(C(=O)O)N2C(=O)[C@@H](NC(=O)[C@H](N)c3ccccc3)[C@H]2SC1` [Cefalexin]: the MIC90 is 32 µg/mL (≈ 92.1 µM) with susceptible H. pylori (pH 5.5), 16 µg/mL (≈ 46.1 µM) with susceptible H. pylori (pH 6.0) and 2 µg/mL (≈ 5.76 µM) in the assay on susceptible H. pylori (pH 7.5).
Consider `O=C([O-])CC(O)(CC(=O)[O-])C(=O)[O-].O=C([O-])CC(O)(CC(=O)[O-])C(=O)[O-].[Bi+3].[K+].[K+].[K+]` [Bismuth subcitrate], for which the MIC90 is 8 µg/mL in the assay with susceptible H. pylori (pH 6.0) and 16 µg/mL in the assay with susceptible H. pylori (pH 7.5).
For the compound `CC[C@H]1OC(=O)[C@H](C)[C@@H](O[C@H]2C[C@@](C)(OC)[C@@H](O)[C@H](C)O2)[C@H](C)[C@@H](O[C@@H]2O[C@H](C)C[C@H](N(C)C)[C@H]2O)[C@](C)(OC)C[C@@H](C)C(=O)[C@H](C)[C@@H](O)[C@]1(C)O` [Clarithromycin], the MIC90 is 0.25 µg/mL (≈ 0.334 µM) in the assay on susceptible H. pylori (pH 5.5), 0.06 µg/mL (≈ 0.0802 µM) in the assay with susceptible H. pylori (pH 6.0) and 0.03 µg/mL (≈ 0.0401 µM) in the assay with susceptible H. pylori (pH 7.5). Besides, the “increase of MIC90” value in the assay with susceptible H. pylori is on record as “eight”.
`COc1ccccc1CC(=O)O` [2-methoxyphenylacetic acid]: the zone of inhibition at 4 mg/disc in the assay on Helicobacter pylori J99 (4 mg/disc) amounted to 16 mm.
Consider `O=C(O)CCCc1ccccc1` [4-phenylbutyric acid], for which the zone of inhibition at 4 mg/disc with Helicobacter pylori J99 (4 mg/disc) worked out at 28 mm.
Regarding `CC[C@H]1OC(=O)[C@H](C)[C@@H](O[C@H]2C[C@@](C)(OC)[C@@H](O)[C@H](C)O2)[C@H](C)[C@@H](O[C@@H]2O[C@H](C)C[C@H](N(C)C)[C@H]2O)[C@](C)(O)C[C@@H](C)C(=O)[C@H](C)[C@@H](O)[C@]1(C)O` [Erythromycin], the results for the MIC90 with susceptible H. pylori (pH 5.5), in the assay on susceptible H. pylori (pH 6.0) and in the assay on susceptible H. pylori (pH 7.5) were 8 µg/mL (≈ 10.9 µM), 2 µg/mL (≈ 2.73 µM) and 0.06 µg/mL (≈ 0.0818 µM), respectively.
For the compound `Nc1cc(N)cc(C(=O)O)c1` [3,5-diaminobenzoic acid], the zone of inhibition at 4 mg/disc in the assay with Helicobacter pylori J99 (4 mg/disc) stood at 12 mm.
On to `O=C(O)c1ccc([N+](=O)[O-])cc1` [4-nitrobenzoic acid], for which the zone of inhibition at 1 mg/disc in the assay on Helicobacter pylori J99 (1 mg/disc) was 70 mm.
Consider `CC1(C)S[C@@H]2[C@H](NC(=O)[C@H](N)c3ccccc3)C(=O)N2[C@H]1C(=O)O` [Ampicillin], for which the MIC90 with susceptible H. pylori (pH 5.5) was 0.5 µg/mL (≈ 1.43 µM); in the assay with susceptible H. pylori (pH 6.0) it was 0.25 µg/mL (≈ 0.715 µM); in the assay with susceptible H. pylori (pH 7.5), 0.06 µg/mL (≈ 0.172 µM).
Compound `O=C(O)c1ccc([N+](=O)[O-])cc1[N+](=O)[O-]` [2,4-dinitrobenzoic acid] gave an inhibition growth diameter in the assay with Helicobacter pylori J99 (4 mg/disc) of 33 mm.
Turning to `O=C(O)C1CCC(C(=O)O)CC1` (stereo not drawn) [1,4-cyclohexanedicarboxylic acid], the zone of inhibition at 4 mg/disc in the assay with Helicobacter pylori J99 (4 mg/disc) was determined as 12 mm.
Consider Penicillin, for which the results for the MIC90 with susceptible H. pylori (pH 5.5), in the assay on susceptible H. pylori (pH 6.0) and in the assay on susceptible H. pylori (pH 7.5) were 0.5 µg/mL, 0.5 µg/mL and 0.03 µg/mL, respectively.
The term MBC denotes the lowest tested concentration that kills the bacteria rather than only halting them. A low value points to more potent killing. In the case of `O=C(O)c1ccccc1` [Benzoic acid], the zone of inhibition at 4 mg/disc with Helicobacter pylori J99 (4 mg/disc) was found to be 24 mm. In addition, in the assay on H. pylori J99 [1], the MBC is 500 µg/mL (≈ 4090 µM). Moreover, the MIC90 in the assay on H. pylori J99 [2] (J99, pH 6) was 0.06 µg/mL (≈ 0.491 µM); with H. pylori J99 [2] (J99, pH 6.5) it was 0.06 µg/mL (≈ 0.491 µM); in the assay with H. pylori J99 [2] (J99, pH 7), 0.06 µg/mL (≈ 0.491 µM). In the assay on H. pylori J99 [2], this compound came in with an MIC of 0.06.
With `Cc1ccc(C(O)=S)cc1` [4-methylthiobenzoic acid], the zone of inhibition at 1 mg/disc in the assay with Helicobacter pylori J99 (1 mg/disc) was 18 mm. For the same compound, the zone of inhibition at 4 mg/disc in the assay on Helicobacter pylori J99 (4 mg/disc) came to 40 mm.
On to `O=C(O)/C=C/c1ccccc1` [Trans-cinnamic acid], for which, in the assay with Helicobacter pylori J99 (1 mg/disc), the zone of inhibition at 1 mg/disc amounted to 25 mm.
As for `O=C(O)c1cn(C2CC2)c2cc(N3CCNCC3)c(F)cc2c1=O` [Ciprofloxacin], the MIC90 in the assay on susceptible H. pylori (pH 5.5) was 2 µg/mL (≈ 6.04 µM); in the assay with susceptible H. pylori (pH 6.0), 0.5 µg/mL (≈ 1.51 µM); in the assay with susceptible H. pylori (pH 7.5), 0.12 µg/mL (≈ 0.362 µM).
`O=C(O)Cc1ccc(Br)cc1` [4-bromphenylacetic acid]: the inhibition growth diameter with Helicobacter pylori J99 (1 mg/disc) was 16 mm; with Helicobacter pylori J99 (4 mg/disc), 35 mm.
Regarding `O=C(O)Cc1ccccc1` [Phenylacetic acid], the zone of inhibition at 4 mg/disc in the assay with Helicobacter pylori J99 (4 mg/disc) turned out to be 22 mm. In addition, the MBC against H. pylori J99 [1] is 1000 µg/mL (≈ 7340 µM). The MIC90 with H. pylori J99 [2] (J99, pH 6.5, read-out: MIC90) was 0.125 µg/mL (≈ 0.918 µM); in the assay on H. pylori J99 [2] (J99, pH 7), 0.125 µg/mL (≈ 0.918 µM); with H. pylori J99 [2] (J99, pH 6.0, read-out: MIC90), 0.125 µg/mL (≈ 0.918 µM). Also, the MIC with H. pylori J99 [2] is reported as 0.125.
Consider `O=C(O)CCc1ccccc1` [3-phenylpropionic acid], for which the zone of inhibition at 1 mg/disc with Helicobacter pylori J99 (1 mg/disc) turned out to be 14 mm. In the assay on Helicobacter pylori J99 (4 mg/disc), the zone of inhibition at 4 mg/disc turned out to be 34 mm.
On to `Cc1ccc(C(=O)O)cc1N` [3-amino-4-methylbenzoic acid], for which the zone of inhibition at 4 mg/disc in the assay with Helicobacter pylori J99 (4 mg/disc) was 14 mm.
Same read-out and setting: the same measure for `CN(C)c1ccc(C(=O)O)cc1` [4-(dimethylamino)benzoic acid]: 26 mm; for `Nc1ccc(CC(=O)O)cc1` [4-aminophenylacetic acid]: 12 mm.
